Test results as given in patent US9661854B2, “Molecules having pesticidal utility, and intermediates, compositions, and processes, related thereto” (Dow AgroSciences LLC, priority 2015, dated 2017).

Assays:
[1] = tested on: Beet Armyworm (Spodoptera exigua, LAPHEG); assay: Bioassay on Beet Armyworm (BAW), 128-well diet tray assay; format: in vivo; details: 168 h, 50 μg/cm^2 on artificial diet, second instar larvae, 25° C., five to seven days, average of eight wells, read-out: BAW % Control (or Mortality) rating
Description: (§1) Example A: Bioassays on Beet Armyworm (Spodoptera exigua, LAPHEG) (“BAW”) and Cabbage Looper (Trichoplusia ni, TRIPNI) (“CL”)
(§2) Certain molecules disclosed in this document were tested against BAW and CL using procedures described in the following examples. In the reporting of the results, the “BAW & CL Rating Table” was used (See Table Section).
Bioassays on BAW were conducted using a 128-well diet tray assay. One to five second instar BAW larvae were placed in each well (3 mL) of the diet tray that had been previously filled with 1 mL of artificial diet to which 50 μg/cm^2 of the test molecule (dissolved in 50 μL of 90:10 acetone-water mixture) had been applied (to each of eight wells) and then allowed to dry. Trays were covered with a clear self-adhesive cover, vented to allow gas exchange, and held at 25° C., 14:10 light-dark for five to seven days. Percent mortality was recorded for the larvae in each well; activity in the eight wells was then averaged. The results are indicated in the table entitled “Table ABC: Biological Results” (See Table Section).

[2] = tested on: Cabbage Looper (Trichoplusia ni, TRIPNI); assay: Bioassay on Cabbage Looper (CL), 128-well diet tray assay; format: in vivo; details: 168 h, 50 μg/cm^2 on artificial diet, second instar larvae, 25° C., five to seven days, average of eight wells, read-out: CL % Control (or Mortality) rating
Description: as §1, §2
Bioassays on CL were conducted using a 128-well diet tray assay. One to five second instar CL larvae were placed in each well (3 mL) of the diet tray that had been previously filled with 1 mL of artificial diet to which 50 μg/cm^2 of the test molecule (dissolved in 50 μL of 90:10 acetone-water mixture) had been applied (to each of eight wells) and then allowed to dry. Trays were covered with a clear self-adhesive cover, vented to allow gas exchange, and held at 25° C., 14:10 light-dark for five to seven days. Percent mortality was recorded for the larvae in each well; activity in the eight wells was then averaged. The results are indicated in the table entitled “Table ABC: Biological Results” (See Table Section).

Row | Compound | mortality at 50 µg/cm2 [1] [%] | mortality at 50 µg/cm2 [2] [%]
1 | Cc1ccc(C(C)C)c(N2C(=O)CS/C2=N\C(=O)Nc2ccc(CCc3ncn(-c4ccc(OC(F)(F)F)cc4)n3)cc2C(F)(F)F)c1 [F25, (Z)-1-(3-(2-Isopropyl-5-methylphenyl)-4-oxothiazolidin-2-ylidene)-3-(4-(2-(1-(4-(trifluoromethoxy)phenyl)-1H-1,2,4-triazol-3-yl)ethyl)-2-(trifluoromethyl)phenyl)urea] | 50 to 100 | 50 to 100
2 | CC(C)c1ccc(C(F)(F)F)cc1N1C(=O)CS/C1=N\C(=O)Nc1ccc(CCc2ncn(-c3ccc(OC(F)(F)F)cc3)n2)cc1F [F27, (Z)-1-(2-Fluoro-4-(2-(1-(4-(trifluoromethoxy)phenyl)-1H-1,2,4-triazol-3-yl)ethyl)phenyl)-3-(3-(2-isopropyl-5-(trifluoromethyl)phenyl)-4-oxothiazolidin-2-ylidene)urea] | 50 to 100 | 50 to 100
3 | Cc1ccc(C2CC2(F)F)c(N2C(=O)CS/C2=N\C(=O)Nc2ccc(CCc3ncn(-c4ccc(OC(F)(F)F)cc4)n3)cc2)c1 (stereo not shown) [F28, (Z)-1-(3-(2-(2,2-Difluorocyclopropyl)-5-methylphenyl)-4-oxothiazolidin-2-ylidene)-3-(4-(2-(1-(4-(trifluoromethoxy)phenyl)-1H-1,2,4-triazol-3-yl)ethyl)phenyl)urea] | 50 to 100 | 50 to 100
4 | CC(C)c1ccc(C(F)(F)F)cc1N1C(=O)CS/C1=N\C(=O)Nc1ccc(CCc2ncn(-c3ccc(OC(F)(F)F)cc3)n2)cc1 [F29, (Z)-1-(3-(2-Isopropyl-5-(trifluoromethyl)phenyl)-4-oxothiazolidin-2-ylidene)-3-(4-(2-(1-(4-(trifluoromethoxy)phenyl)-1H-1,2,4-triazol-3-yl)ethyl)phenyl)urea] | 50 to 100 | 50 to 100
5 | Cc1ccc(C2CC2(F)F)c(N2C(=O)CS/C2=N\C(=O)Nc2ccc(CCc3ncn(-c4ccc(OC(F)(F)F)cc4)n3)cc2F)c1 (stereo not shown) [F30, (Z)-1-(3-(2-(2,2-Difluorocyclopropyl)-5-methylphenyl)-4-oxothiazolidin-2-ylidene)-3-(2-fluoro-4-(2-(1-(4-(trifluoromethoxy)phenyl)-1H-1,2,4-triazol-3-yl)ethyl)phenyl)urea] | 50 to 100 | 50 to 100
6 | COC(C)c1ccc(C)cc1N1C(=O)CS/C1=N\C(=O)Nc1ccc(CCc2ncn(-c3ccc(OC(F)(F)F)cc3)n2)cc1 (stereo not shown) [F31, (Z)-1-(3-(2-(1-Methoxyethyl)-5-methylphenyl)-4-oxothiazolidin-2-ylidene)-3-(4-(2-(1-(4-(trifluoromethoxy)phenyl)-1H-1,2,4-triazol-3-yl)ethyl)phenyl)urea] | 50 to 100 | 50 to 100
7 | Cc1ccc(C(C)C)c(N2C(=O)CS/C2=N\C(=O)Nc2ccc(CCc3ncn(-c4ccc(OC(F)(F)F)cc4)n3)cn2)c1 [F32, (Z)-1-(3-(2-Isopropyl-5-methylphenyl)-4-oxothiazolidin-2-ylidene)-3-(5-(2-(1-(4-(trifluoromethoxy)phenyl)-1H-1,2,4-triazol-3-yl)ethyl)pyridin-2-yl)urea] | 50 to 100 | 50 to 100
8 | Cc1ccc(C(C)C)c(N2C(=O)CS/C2=N\C(=O)Nc2ccc(CCc3ncn(-c4ccc(OC(F)(F)F)cn4)n3)cn2)c1 [F33, (Z)-1-(3-(2-Isopropyl-5-methylphenyl)-4-oxothiazolidin-2-ylidene)-3-(5-(2-(1-(5-(trifluoromethoxy)pyridin-2-yl)-1H-1,2,4-triazol-3-yl)ethyl)pyridin-2-yl)urea] | 50 to 100 | 50 to 100
9 | Cc1ccc(C(C)C)c(N2C(=O)CS/C2=N\C(=O)Nc2ccc(CCc3ncn(-c4ncc(C(F)(F)F)cc4Cl)n3)cc2)c1 [F34, (Z)-1-(4-(2-(1-(3-Chloro-5-(trifluoromethyl)pyridin-2-yl)-1H-1,2,4-triazol-3-yl)ethyl)phenyl)-3-(3-(2-isopropyl-5-methylphenyl)-4-oxothiazolidin-2-ylidene)urea] | 0 | 50 to 100
10 | O=C(/N=C1\SCC(=O)N1C1CCCCC1)Nc1ccc(CCc2ncn(-c3ccc(OC(F)(F)F)cc3)n2)cc1 [F35, (Z)-1-(3-Cyclohexyl-4-oxothiazolidin-2-ylidene)-3-(4-(2-(1-(4-(trifluoromethoxy)phenyl)-1H-1,2,4-triazol-3-yl)ethyl)phenyl)urea] | 50 to 100 | 50 to 100
11 | Cc1ccc(C(C)C)c(-n2ccs/c2=N\C(=O)Nc2ccc(CCc3ncn(-c4ccc(OC(F)(F)F)cc4)n3)cc2)c1 [F36, (Z)-1-(3-(2-Isopropyl-5-methylphenyl)thiazol-2(3H)-ylidene)-3-(4-(2-(1-(4-(trifluoromethoxy)phenyl)-1H-1,2,4-triazol-3-yl)ethyl)phenyl)urea] | 50 to 100 | 50 to 100
12 | Cc1ccc(C(C)C)c(-n2ccs/c2=N\C(=O)Nc2ccc(CCc3ncn(-c4ccc(OC(F)(F)F)cc4)n3)cc2F)c1 [F37, (Z)-1-(2-Fluoro-4-(2-(1-(4-(trifluoromethoxy)phenyl)-1H-1,2,4-triazol-3-yl)ethyl)phenyl)-3-(3-(2-isopropyl-5-methylphenyl)thiazol-2(3H)-ylidene)urea] | 50 to 100 | 50 to 100
13 | Cc1ccc(C(C)C)c(N2C(=O)CS/C2=N\C(=O)Nc2ccc(/C=C/c3ncn(-c4ccc(OC(F)(F)F)cc4)n3)c(C)c2)c1 [F39, 1-((Z)-3-(2-Isopropyl-5-methylphenyl)-4-oxothiazolidin-2-ylidene)-3-(3-methyl-4-((E)-2-(1-(4-(trifluoromethoxy)phenyl)-1H-1,2,4-triazol-3-yl)vinyl)phenyl)urea] | 50 to 100 | 50 to 100
14 | COc1cc(NC(=O)/N=C2\SCC(=O)N2c2cc(C)ccc2C(C)C)ccc1/C=C/c1ncn(-c2ccc(OC(F)(F)F)cc2)n1 [F40, 1-((Z)-3-(2-Isopropyl-5-methylphenyl)-4-oxothiazolidin-2-ylidene)-3-(3-methoxy-4-((E)-2-(1-(4-(trifluoromethoxy)phenyl)-1H-1,2,4-triazol-3-yl)vinyl)phenyl)urea] | 50 to 100 | 50 to 100
15 | Cc1ccc(F)c(N2C(=O)CS/C2=N\C(=O)Nc2ccc(/C=C/c3ncn(-c4ccc(OC(F)(F)F)cc4)n3)cc2)c1 [F41, 1-((Z)-3-(2-Fluoro-5-methylphenyl)-4-oxothiazolidin-2-ylidene)-3-(4-((E)-2-(1-(4-(trifluoromethoxy)phenyl)-1H-1,2,4-triazol-3-yl)vinyl)phenyl)urea] | 50 to 100 | 50 to 100
16 | COc1ccc(C)cc1N1C(=O)CS/C1=N\C(=O)Nc1ccc(/C=C/c2ncn(-c3ccc(OC(F)(F)F)cc3)n2)cc1 [F42, 1-((Z)-3-(2-Methoxy-5-methylphenyl)-4-oxothiazolidin-2-ylidene)-3-(4-((E)-2-(1-(4-(trifluoromethoxy)phenyl)-1H-1,2,4-triazol-3-yl)vinyl)phenyl)urea] | 50 to 100 | 50 to 100
17 | Cc1ccc(C(F)(F)F)c(N2C(=O)CS/C2=N\C(=O)Nc2ccc(/C=C/c3ncn(-c4ccc(OC(F)(F)F)cc4)n3)cc2)c1 [F43, 1-((Z)-3-(5-Methyl-2-(trifluoromethyl)phenyl)-4-oxothiazolidin-2-ylidene)-3-(4-((E)-2-(1-(4-(trifluoromethoxy)phenyl)-1H-1,2,4-triazol-3-yl)vinyl)phenyl)urea] | 50 to 100 | 50 to 100
18 | Cc1ccc(Cl)c(N2C(=O)CS/C2=N\C(=O)Nc2ccc(/C=C/c3ncn(-c4ccc(OC(F)(F)F)cc4)n3)cc2)c1 [F44, 1-((Z)-3-(2-Chloro-5-methylphenyl)-4-oxothiazolidin-2-ylidene)-3-(4-((E)-2-(1-(4-(trifluoromethoxy)phenyl)-1H-1,2,4-triazol-3-yl)vinyl)phenyl)urea] | 50 to 100 | 50 to 100
19 | CCCc1ccc(C)cc1N1C(=O)CS/C1=N\C(=O)Nc1ccc(/C=C/c2ncn(-c3ccc(OC(F)(F)F)cc3)n2)cc1 [F45, 1-((Z)-3-(5-Methyl-2-propylphenyl)-4-oxothiazolidin-2-ylidene)-3-(4-((E)-2-(1-(4-(trifluoromethoxy)phenyl)-1H-1,2,4-triazol-3-yl)vinyl)phenyl)urea] | 50 to 100 | 50 to 100
20 | CCOc1ccc(C)cc1N1C(=O)CS/C1=N\C(=O)Nc1ccc(/C=C/c2ncn(-c3ccc(OC(F)(F)F)cc3)n2)cc1 [F46, 1-((Z)-3-(2-Ethoxy-5-methylphenyl)-4-oxothiazolidin-2-ylidene)-3-(4-((E)-2-(1-(4-(trifluoromethoxy)phenyl)-1H-1,2,4-triazol-3-yl)vinyl)phenyl)urea] | 50 to 100 | 50 to 100
